Experimental data reported in US20090069429A1 (SGP & SONS AB, priority 2006, published 2009).
“Also recorded” adds a separate entry of the source.

What was measured:
[1] = tested on: fast-twitch extensor digitorum longus muscle (EDL); assay: Contractile endurance and force of isolated extensor digitorum longus muscle from rats given AKG, continuous electrical stimulation at 90 Hz; type: in vivo, rat
Method: FIG. 5 presents contracting characteristics of extensor digitorum longus muscle in uremic rats+test component (n=3) and control rats+test component (n=2) incubated in Krebs Ringer solution and uremic rats+test component (n=3) incubated in Uremic Buffer (30 min.), 90 Hz, 1 ms and <90V.
(§1) Animals were kept in a thermostatically controlled chamber, containing the equipment to measure contractile force in isolated rat skeletal muscle, i.e. a computer, analogue-digital transducer, amplifier, differential amplifier, stimulator, […] and 5% carbon dioxide.
(§2) Thermostatically controlled chamber, maintained at 30° C., contained a glass diffuser for efficient oxygenation of buffer, a mounting/stimulation block with 2 pins to fix portion of fibula in place and 2 silver stimulating electrodes.

[2] = tested on: muscle; assay: Muscle performance after oral AKG (general conclusions); type: in vivo, rat
Method: as §1, §2

[3] = tested on: slow-twitch soleus muscle; assay: Contractile endurance and force of isolated soleus muscle from rats given AKG, continuous electrical stimulation at 40 Hz; type: in vivo, rat
Method: FIG. 4 presents contracting characteristics of soleus muscles in uremic rats +test component (n=10), control rats+placebo (n=8), control rats+test component (n=4) incubated in Krebs Ringer physiological solution (30 min. incubation) and electrically stimulated at 40 Hz (32 mA, 1 ms, <90V).
as §1, §2

[4] = tested on: soleus muscles; conditions: 48-h T3 subcutaneously; 90 Hz continuous stimulation; cited from earlier work
[5] = AKG-administered uremic rats, Krebs Ringer vs Uremic buffer incubation

SMILES	endurance performance of extensor digitorum longus muscle ([1]; AKG administered uremic rats vs placebo administered uremic rats)	endurance profile of extensor digitorum longus muscle (buffer effect) [1, 5]	slowing of Rate of Force Generation ([1]; fast-twitch muscles, oral treatment 21 days or less)	Maximal Isometric Force improvement ([1]; fast-twitch muscles, oral treatment 21 days or less, vs untreated controls)	effect on muscle performance in terms of endurance during sustained contraction ([2]; AKG administration)	peripheral fatigue during sustained contraction at normal working frequency ([2]; oral AKG)	period within which muscle function improves ([2]; oral preparation)	endurance profile of soleus muscle (buffer effect) [3, 5]	endurance of soleus muscles ([3]; control rats given AKG vs placebo, incubated in Krebs Ringer)	slowing of Rate of Force Generation ([3]; slow-twitch muscles, oral treatment 21 days or less)	Maximal Isometric Force improvement ([3]; slow-twitch muscles, oral treatment 21 days or less, vs untreated controls)	rate of fatigue of soleus muscle [4]
O=C(O)CCC(=O)C(=O)O [AKG, alpha-ketoglutarate]	improved performance	better endurance profile	~8.5%	28%	beneficial effect	reduce	≤ 21 days	better endurance profile	improves the endurance; also recorded: improved endurance	~130%	12%	
N[C@@H](Cc1cc(I)c(Oc2ccc(O)c(I)c2)c(I)c1)C(=O)O [T3, 3,5,3′-triiodothyronine]												rapid rate of fatigue
